Measured values as given in PubChem BioAssay (NCI).
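Test compounds were applied to cells in 96-well plates for 48 hours at 5 doses. TGI: total growth inhibition.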

Experiments:
Experiment in all cases: NCI anticancer screen, dose series, 48 h
786-0 renal = tested on: 786-0 renal
A498 renal = tested on: A498 renal
A549 NSCLC = tested on: A549 NSCLC
ACHN renal = tested on: ACHN renal
CCRF-CEM leukemia = tested on: CCRF-CEM leukemia
COLO 205 colon = tested on: COLO 205 colon
DMS 114 small cell lung = tested on: DMS 114 small cell lung
DMS 273 small cell lung = tested on: DMS 273 small cell lung
EKVX NSCLC = tested on: EKVX NSCLC
HCC-2998 colon = tested on: HCC-2998 colon
HCT-116 colon = tested on: HCT-116 colon
HCT-15 colon = tested on: HCT-15 colon
HL-60(TB) leukemia = tested on: HL-60(TB) leukemia
HOP-18 NSCLC = tested on: HOP-18 NSCLC
HOP-62 NSCLC = tested on: HOP-62 NSCLC
HOP-92 NSCLC = tested on: HOP-92 NSCLC
HT29 colon = tested on: HT29 colon
IGROV1 ovarian = tested on: IGROV1 ovarian
K-562 leukemia = tested on: K-562 leukemia
KM12 colon = tested on: KM12 colon
KM20L2 colon = tested on: KM20L2 colon
LOX IMVI melanoma = tested on: LOX IMVI melanoma
M14 melanoma = tested on: M14 melanoma
M19-MEL melanoma = tested on: M19-MEL melanoma
MALME-3M melanoma = tested on: MALME-3M melanoma
MOLT-4 leukemia = tested on: MOLT-4 leukemia
NCI-H226 lung = tested on: NCI-H226 lung
NCI-H23 lung = tested on: NCI-H23 lung
NCI-H460 lung = tested on: NCI-H460 lung
NCI-H522 lung = tested on: NCI-H522 lung
OVCAR-3 ovarian = tested on: OVCAR-3 ovarian
OVCAR-4 ovarian = tested on: OVCAR-4 ovarian
OVCAR-8 ovarian = tested on: OVCAR-8 ovarian
RPMI-8226 leukemia = tested on: RPMI-8226 leukemia
RXF 393 renal = tested on: RXF 393 renal
RXF-631 renal = tested on: RXF-631 renal
SF-268 CNS = tested on: SF-268 CNS
SF-295 CNS = tested on: SF-295 CNS
SF-539 CNS = tested on: SF-539 CNS
SK-MEL-2 melanoma = tested on: SK-MEL-2 melanoma
SK-MEL-28 melanoma = tested on: SK-MEL-28 melanoma
SK-MEL-5 melanoma = tested on: SK-MEL-5 melanoma
SK-OV-3 ovarian = tested on: SK-OV-3 ovarian
SN12C renal = tested on: SN12C renal
SNB-19 CNS = tested on: SNB-19 CNS
SNB-75 CNS = tested on: SNB-75 CNS
SNB-78 CNS = tested on: SNB-78 CNS
SW-620 colon = tested on: SW-620 colon
TK-10 renal = tested on: TK-10 renal
U251 CNS = tested on: U251 CNS
UACC-257 melanoma = tested on: UACC-257 melanoma
UACC-62 melanoma = tested on: UACC-62 melanoma
UO-31 renal = tested on: UO-31 renal
XF 498 CNS = tested on: XF 498 CNS
CAKI-1 renal = tested on: CAKI-1 renal
DLD-1 colon = tested on: DLD-1 colon
LXFL 529 NSCLC = tested on: LXFL 529 NSCLC
OVCAR-5 ovarian = tested on: OVCAR-5 ovarian
SR leukemia = tested on: SR leukemia

Measured: TGI

CCC12CCC(O)C1N(C)CCC2Sc1ccccc1 (stereo not drawn)
94.8 µM: HCC-2998 colon
56.5 µM: HL-60(TB) leukemia
94.3 µM: HOP-92 NSCLC
87.9 µM: SNB-75 CNS
not listed: CAKI-1 renal | DLD-1 colon | LXFL 529 NSCLC | OVCAR-5 ovarian | SR leukemia
> 100 µM: all other assays above

Nc1ccc(CCN2CCN(c3cccc(C(F)(F)F)c3)CC2)cc1
41.8 µM: HL-60(TB) leukemia
89.7 µM: MOLT-4 leukemia
not listed: DMS 273 small cell lung | OVCAR-4 ovarian | SK-MEL-2 melanoma | SNB-78 CNS | SW-620 colon
> 100 µM: all other assays above
